pIC50: −log10 of the molar value. Where two headings read alike, the source gives them in different places.
Biological target: T1, human SARM1(50-724) (Homo sapiens, UniProt Q6SZW1)
T1 construct: 40 nM human SARM1(50-724)
T1 sequence (Q6SZW1 50-724): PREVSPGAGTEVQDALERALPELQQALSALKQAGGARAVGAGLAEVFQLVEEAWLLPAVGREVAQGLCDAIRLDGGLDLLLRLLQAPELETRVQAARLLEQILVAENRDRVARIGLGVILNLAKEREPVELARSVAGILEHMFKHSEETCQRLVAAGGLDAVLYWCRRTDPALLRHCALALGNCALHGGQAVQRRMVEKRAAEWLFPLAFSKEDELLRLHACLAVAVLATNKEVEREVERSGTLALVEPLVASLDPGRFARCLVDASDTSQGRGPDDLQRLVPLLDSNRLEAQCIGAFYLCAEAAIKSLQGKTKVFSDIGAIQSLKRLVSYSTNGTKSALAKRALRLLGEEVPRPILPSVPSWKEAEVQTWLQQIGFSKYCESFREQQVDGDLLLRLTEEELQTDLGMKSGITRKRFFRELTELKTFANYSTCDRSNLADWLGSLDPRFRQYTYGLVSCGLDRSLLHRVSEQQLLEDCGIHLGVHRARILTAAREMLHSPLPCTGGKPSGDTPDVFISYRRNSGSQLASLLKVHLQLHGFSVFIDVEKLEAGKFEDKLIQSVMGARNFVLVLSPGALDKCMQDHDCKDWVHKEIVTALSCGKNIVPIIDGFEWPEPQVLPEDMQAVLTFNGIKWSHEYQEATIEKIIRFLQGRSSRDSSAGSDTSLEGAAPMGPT
Test: SARM1 NADase biochemical assay (HPLC peak areas of NAD and NAM)
Details: for pIC50: dose-response, 1:3 serial dilution from 100 μM, 40 nM SARM1, 0.3 mM NMN, 20 μM NAD, 60 min rt
Protocol: The reaction was incubated at room temperature for 60 minutes and quenched with 20 μL of 0.4% formic acid. […] Total run time for each sample was 4 minutes. […] Samples were run at a flow rate of 0.8 mL/min at 55° C. Peak areas of NAD and NAM were determined using OpenLAB CDS (Chem Station edition) software. For dose-response, the compound was diluted serially 1:3 in DMSO and added to the reaction starting at a final compound concentration of 100 μM in 1% DMSO.

[1] = 50 μM compound, NAD peak area, read-out: Avg NAD % inhibition at 50 μM
[2] = 50 μM compound, NAM peak area, read-out: Avg NAM % inhibition at 50 μM
[3] = read-out: Avg NAD % inhibition at 50 μM
[4] = read-out: Avg NAM % inhibition at 50 μM

Row | Compound | pIC50 | inhibition at 50 µM [1] | inhibition at 50 µM [2] | inhibition at 50 µM [3] | inhibition at 50 µM [4]
1 | FC(F)(F)Cn1ccc(Cc2ccncc2)n1 [Example 20, 4-((1-(2,2,2-Trifluoroethyl)-1H-pyrazol-3-yl)methyl)pyridine] | 5.00 to 6.00 |  |  |  | 
2 | Cc1cnccc1Cc1ccn(CC(F)(F)F)n1 [Example 23, 3-Methyl-4-((1-(2,2,2-trifluoroethyl)-1H-pyrazol-3-yl)methyl)pyridine] | 5.00 to 6.00 |  |  |  | 
3 | FC(F)(F)CNc1ccn(Cc2ccncc2)n1 [Example 26, 1-(Pyridin-4-ylmethyl)-N-(2,2,2-trifluoroethyl)-1H-pyrazol-3-amine] | 4.00 to 5.00 | 0 to 50% | 0 to 50% |  | 
4 | FC(F)(F)Cc1ccn(Cc2ccncc2)n1 [Example 29, 4-((3-(2,2,2-Trifluoroethyl)-1H-pyrazol-1-yl)methyl)pyridine] | > 6.00 |  |  |  | 
5 | N#CCc1ccn(Cc2ccncc2)n1 [Example 30, 2-(1-(Pyridin-4-ylmethyl)-1H-pyrazol-3-yl)acetonitrile] | 5.00 to 6.00 |  |  |  | 
6 | O=C(CCc1cccc(Cl)c1)Nc1ccn(Cc2ccncc2)n1 [Example 32, 3-(3-Chlorophenyl)-N-(1-(pyridin-4-ylmethyl)-1H-pyrazol-3-yl)propanamide] |  | 0 to 50% | 0 to 50% |  | 
7 | O=C(CCc1cc(F)ccc1F)Nc1ccn(Cc2ccncc2)n1 [Example 33, 3-(2,5-Difluorophenyl)-N-(1-(pyridin-4-ylmethyl)-1H-pyrazol-3-yl)propanamide] | < 4.00 | 51 to 100% | 51 to 100% |  | 
8 | O=C(CCc1ccccc1)Nc1ccn(Cc2ccncc2)n1 [Example 34, 3-Phenyl-N-(1-(pyridin-4-ylmethyl)-1H-pyrazol-3-yl)propanamide] |  | 0 to 50% | 0 to 50% |  | 
9 | O=C(CCc1cc(Cl)cc(Cl)c1)Nc1ccn(Cc2ccncc2)n1 [Example 35, 3-(3,5-Dichlorophenyl)-N-(1-(pyridin-4-ylmethyl)-1H-pyrazol-3-yl)propanamide] |  | 0 to 50% | 0 to 50% |  | 
10 | O=C(Cc1ccccc1)Nc1ccn(Cc2ccncc2)n1 [Example 36, 2-Phenyl-N-(1-(pyridin-4-ylmethyl)-1H-pyrazol-3-yl)acetamide] |  |  |  | 0 to 50% | 0 to 50%
11 | O=C(Nc1ccn(Cc2ccncc2)n1)c1ccc2c(c1)OCCO2 [Example 37, N-(1-(Pyridin-4-ylmethyl)-1H-pyrazol-3-yl)-2,3-dihydrobenzo[b][1,4]dioxine-6-carboxamide] |  | 0 to 50% | 0 to 50% |  | 
12 | O=C(Nc1ccn(Cc2ccncc2)n1)c1ccc2c(c1)OCC2 [Example 38, N-(1-(Pyridin-4-ylmethyl)-1H-pyrazol-3-yl)-2,3-dihydrobenzofuran-6-carboxamide] | 5.00 to 6.00 |  |  |  | 
13 | O=C(Nc1ccn(Cc2ccncc2)n1)c1ccc2c(c1)CCO2 [Example 39, N-(1-(Pyridin-4-ylmethyl)-1H-pyrazol-3-yl)-2,3-dihydrobenzofuran-5-carboxamide] |  | 0 to 50% | 0 to 50% |  | 
14 | O=C(Nc1ccn(Cc2ccncc2)n1)c1ccc2c(c1)CCC2 [Example 40, N-(1-(Pyridin-4-ylmethyl)-1H-pyrazol-3-yl)-2,3-dihydro-1H-indene-5-carboxamide] |  | 0 to 50% | 0 to 50% |  | 
15 | COc1ccc(C(=O)Nc2ccn(Cc3ccncc3)n2)cc1OC [Example 41, 3,4-Dimethoxy-N-(1-(pyridin-4-ylmethyl)-1H-pyrazol-3-yl)benzamide] |  |  |  | 0 to 50% | 0 to 50%
16 | COc1ccc(C(=O)Nc2ccn(Cc3ccncc3)n2)cc1 [Example 42, 4-Methoxy-N-(1-(pyridin-4-ylmethyl)-1H-pyrazol-3-yl)benzamide] |  | 0 to 50% | 0 to 50% |  | 
17 | COc1cccc(C(=O)Nc2ccn(Cc3ccncc3)n2)c1 [Example 43, 3-Methoxy-N-(1-(pyridin-4-ylmethyl)-1H-pyrazol-3-yl)benzamide] |  | 0 to 50% | 0 to 50% |  | 
18 | COc1ccccc1C(=O)Nc1ccn(Cc2ccncc2)n1 [Example 44, 2-Methoxy-N-(1-(pyridin-4-ylmethyl)-1H-pyrazol-3-yl)benzamide] |  |  |  | 0 to 50% | 0 to 50%
19 | O=C(Nc1ccn(Cc2ccncc2)n1)c1ccc(O)cc1 [Example 45, 4-Hydroxy-N-(1-(pyridin-4-ylmethyl)-1H-pyrazol-3-yl)benzamide] |  | 0 to 50% | 0 to 50% |  | 
20 | O=C(Nc1ccn(Cc2ccncc2)n1)c1cccc(O)c1 [Example 46, 3-Hydroxy-N-(1-(pyridin-4-ylmethyl)-1H-pyrazol-3-yl)benzamide] |  | 0 to 50% | 0 to 50% |  | 
21 | O=C(Nc1ccn(Cc2ccncc2)n1)c1ccccc1O [Example 47, 2-Hydroxy-N-(1-(pyridin-4-ylmethyl)-1H-pyrazol-3-yl)benzamide] |  | 0 to 50% | 0 to 50% |  | 
22 | Cc1ccccc1C(=O)Nc1ccn(Cc2ccncc2)n1 [Example 48, 2-Methyl-N-(1-(pyridin-4-ylmethyl)-1H-pyrazol-3-yl)benzamide] |  | 0 to 50% | 0 to 50% |  | 
23 | Cc1cccc(C(=O)Nc2ccn(Cc3ccncc3)n2)c1 [Example 49, 3-Methyl-N-(1-(pyridin-4-ylmethyl)-1H-pyrazol-3-yl)benzamide] |  | 0 to 50% | 0 to 50% |  | 
24 | Cc1ccc(C(=O)Nc2ccn(Cc3ccncc3)n2)cc1 [Example 50, 4-Methyl-N-(1-(pyridin-4-ylmethyl)-1H-pyrazol-3-yl)benzamide] |  | 0 to 50% | 0 to 50% |  | 
25 | N#Cc1ccccc1C(=O)Nc1ccn(Cc2ccncc2)n1 [Example 51, 2-Cyano-N-(1-(pyridin-4-ylmethyl)-1H-pyrazol-3-yl)benzamide] |  |  |  | 0 to 50% | 0 to 50%
26 | O=C(Nc1ccn(Cc2ccncc2)n1)c1ccc(Cl)cc1 [Example 55, 4-Chloro-N-(1-(pyridin-4-ylmethyl)-1H-pyrazol-3-yl)benzamide] |  |  |  | 51 to 100% | 51 to 100%
27 | O=C(Nc1ccn(Cc2ccncc2)n1)c1cccnc1 [Example 62, N-(1-(Pyridin-4-ylmethyl)-1H-pyrazol-3-yl)nicotinamide] |  |  |  | 0 to 50% | 0 to 50%

Second part, led by results:

Row | pIC50 | inhibition at 50 µM [1] | inhibition at 50 µM [2] | Compound | inhibition at 50 µM [3] | inhibition at 50 µM [4]
28 |  | 0 to 50% | 0 to 50% | N#Cc1ccc(C(=O)Nc2ccn(Cc3ccncc3)n2)cc1 [Example 52, 4-Cyano-N-(1-(pyridin-4-ylmethyl)-1H-pyrazol-3-yl)benzamide] |  | 
29 |  | 0 to 50% | 0 to 50% | O=C(Nc1ccn(Cc2ccncc2)n1)c1ccccc1Cl [Example 53, 2-Chloro-N-(1-(pyridin-4-ylmethyl)-1H-pyrazol-3-yl)benzamide] |  | 
30 | 4.00 to 5.00 |  |  | O=C(Nc1ccn(Cc2ccncc2)n1)c1cccc(Cl)c1 [Example 54, 3-Chloro-N-(1-(pyridin-4-ylmethyl)-1H-pyrazol-3-yl)benzamide] |  | 
31 |  | 0 to 50% | 0 to 50% | O=C(Nc1ccn(Cc2ccncc2)n1)c1ccccc1C(F)(F)F [Example 56, N-(1-(Pyridin-4-ylmethyl)-1H-pyrazol-3-yl)-2-(trifluoromethyl)benzamide] |  | 
32 |  | 0 to 50% | 0 to 50% | O=C(Nc1ccn(Cc2ccncc2)n1)c1ccc(C(F)(F)F)cc1 [Example 57, N-(1-(Pyridin-4-ylmethyl)-1H-pyrazol-3-yl)-4-(trifluoromethyl)benzamide] |  | 
33 |  | 0 to 50% | 0 to 50% | O=C(Nc1ccn(Cc2ccncc2)n1)c1ccccc1F [Example 58, 2-Fluoro-N-(1-(pyridin-4-ylmethyl)-1H-pyrazol-3-yl)benzamide] |  | 
34 |  | 0 to 50% | 0 to 50% | O=C(Nc1ccn(Cc2ccncc2)n1)c1cccc(F)c1 [Example 59, 3-Fluoro-N-(1-(pyridin-4-ylmethyl)-1H-pyrazol-3-yl)benzamide] |  | 
35 |  | 0 to 50% | 0 to 50% | O=C(Nc1ccn(Cc2ccncc2)n1)c1ccccn1 [Example 61, N-(1-(Pyridin-4-ylmethyl)-1H-pyrazol-3-yl)picolinamide] |  | 
36 | 5.00 to 6.00 |  |  | O=C(Nc1ccn(Cc2ccncc2)n1)C1COc2ccccc2C1 (stereo not drawn) [Example 63, N-(1-(Pyridin-4-ylmethyl)-1H-pyrazol-3-yl)chromane-3-carboxamide] |  | 
37 |  | 0 to 50% | 0 to 50% | COc1ccc(C(=O)Nc2ccn(Cc3ccncc3)n2)s1 [Example 64, 5-Methoxy-N-(1-(pyridin-4-ylmethyl)-1H-pyrazol-3-yl)thiophene-2-carboxamide] |  | 
